Values of other authors in article PMC12114947, “Evaluation of Violacein Metabolic Stability and Metabolite Identification in Human, Mouse, and Rat Liver Microsomes” (Pharmaceutics, 2025).
Where two headings read alike, the source gives them in different places.

Legend:
[1] = design: method as in PMID 38399311; conditions: liver microsomes, rats; cited from earlier work
[2] = design: method as in PMID 38399311; conditions: liver microsomes, mice; cited from earlier work
[3] = design: method as in PMID 38399311; conditions: liver microsomes, humans; cited from earlier work
[4] = cited from earlier work
[5] = cited from earlier work; remark: listed apart in the source
[6] = cited from earlier work; remark: listed apart in the source
[7] = cited from earlier work; remark: listed apart in the source
[8] = design: method as in PMID 12920490, PMID 24002099, PMID 10445386; conditions: based on the human hepatic microsomal pathway; cited from earlier work
[9] = design: method as in PMID 9408857; conditions: rats; cited from earlier work
[10] = design: method as in PMID 9408857; conditions: rabbits; cited from earlier work
[11] = design: method as in PMID 9408857; conditions: dogs; cited from earlier work
[12] = design: method as in PMID 9408857; conditions: humans; cited from earlier work
[13] = cited from earlier work; remark: listed apart in the source
[14] = cited from earlier work; remark: listed apart in the source

In the case of `CCCC(NCC)C(=O)c1ccccc1` (stereo not shown) [N-ethyl pentedrone], the t1/2 [1] is given as 0.202 h, the t1/2 [2] is given as 3.12 h and the t1/2 [3] is given as 12.8 h.
In the case of `CO[C@H]1O[C@@H]2O[C@@]3(C)CC[C@H]4[C@H](C)CC[C@@H]([C@H]1C)[C@@]24OO3` [artemether], the Clearance ([4]; artemether alone) is given as 281.3 ± 67.3 mL/min/kg and the Clearance ([4]; co-administered with pyronaridine) is given as 466.7 ± 36 mL/min/kg.
For `C[C@@H]1CC[C@H]2[C@@H](C)C(=O)O[C@@H]3O[C@@]4(C)CC[C@@H]1[C@]32OO4` [artemisinin], the t1/2 ([5]; in vivo) is listed as 1 to 2 h.
In the case of `CCN(CC)CCCC(C)Nc1ccnc2cc(Cl)ccc12` (stereo not shown) [chloroquine], the Clearance [4] is listed as 1.5 to 1.7 mL/min/kg.
For `CCCCN(CCCC)CC(O)c1cc(Cl)cc2c1-c1ccc(Cl)cc1/C2=C/c1ccc(Cl)cc1` (stereo not shown) [lumefantrine], the t1/2 ([5]; antimalarials) is given as 72 to 144 h.
In the case of `OC(c1cc(C(F)(F)F)nc2c(C(F)(F)F)cccc12)C1CCCCN1` (stereo not shown) [mefloquine], the Clearance ([4]; in vivo) is listed as 0.33 to 0.83 mL/min/kg.
For `Cc1ncc2n1-c1ccc(Cl)cc1C(c1ccccc1F)=NC2` [midazolam], the “CLint, in vivo” value ([6]; rat) is listed as 79.2 mL/min/kg, the t1/2 ([6]; rats) is listed as “about 31 min” and the “CLint, in vivo” value ([7]; human) is listed as 6.67 mL/min/kg. The t1/2 ([7]; humans) was 1.85 h.
In the case of `COc1cc(NC(C)CCCN)c2ncccc2c1` (stereo not shown) [primaquine], the “Estimated CLint, in vivo” value [8] is listed as “approximately 0.017 mL/min/kg”.
For `CNS(=O)(=O)Cc1ccc2[nH]cc(CCN(C)C)c2c1` [sumatriptan], the Clearance [9] is given as 44.7 mL/min/kg, the Clearance [10] is given as 26 mL/min/kg and the Clearance [11] is given as 14 mL/min/kg. The Clearance [12] was “approximately 1.10 L/h/kg”.
For `NC(Cc1cc(I)c(Oc2cc(I)c(O)c(I)c2)c(I)c1)C(=O)O` (stereo not shown) [thyroxine], the “CLint, in vitro” value ([13]; rat 1) is given as 1.08 mL/min/10^6 cells, the “CLint, in vitro” value ([13]; rat 2) is given as 0.75 mL/min/10^6 cells and the “CLint, in vitro” value ([14]; human donor 1364) is given as 0.61 mL/min/10^6 cells. For the same compound, the “CLint, in vitro” value ([14]; human donor Hu1362) was 0.56 mL/min/10^6 cells.
